Where two headings read alike, the source gives them in different places.
Molecular target: T1, BRD9 (Homo sapiens, UniProt Q9H8M2)
T1 sequence (Q9H8M2 1-597): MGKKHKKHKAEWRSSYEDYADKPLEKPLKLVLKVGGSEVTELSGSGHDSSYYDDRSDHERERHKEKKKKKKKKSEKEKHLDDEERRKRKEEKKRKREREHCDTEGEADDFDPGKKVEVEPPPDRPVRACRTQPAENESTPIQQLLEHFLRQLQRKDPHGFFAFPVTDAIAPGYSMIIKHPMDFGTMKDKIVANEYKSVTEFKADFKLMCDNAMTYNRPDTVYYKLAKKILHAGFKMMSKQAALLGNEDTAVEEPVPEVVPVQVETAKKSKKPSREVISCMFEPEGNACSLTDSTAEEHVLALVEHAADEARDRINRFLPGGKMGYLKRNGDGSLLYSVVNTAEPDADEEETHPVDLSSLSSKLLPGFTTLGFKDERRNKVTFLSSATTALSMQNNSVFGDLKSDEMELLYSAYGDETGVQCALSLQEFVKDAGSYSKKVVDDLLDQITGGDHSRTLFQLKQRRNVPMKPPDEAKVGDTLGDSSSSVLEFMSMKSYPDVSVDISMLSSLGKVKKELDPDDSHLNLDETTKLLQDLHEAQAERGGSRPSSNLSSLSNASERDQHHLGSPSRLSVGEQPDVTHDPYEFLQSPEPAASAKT
Assay: BRD9 degradation, HiBiT-BRD9 KI HEK293 (LgBiT) cells, NanoGlo Lytic Endpoint assay (Assay Protocol 1)
Assay type: cell-based
Settings: BRD9 degradation; for Dmax at 1 µM: 1 μM compound at 6 h of treatment, read-out: Assay 1 Dmax
Description: HiBiT-BRD9 KI HEK293 (LgBiT) Cells (Promega CS3023412) were seeded at 8000 cells per well (38 μL) in sterile white bottom 384 well plates (Invitrogen 164610 or Greiner 781080) and incubated overnight at 37° C. with 5% CO2. The next day, compounds were prepared at 1000× final concentration in DMSO and diluted 1:100 in media (DMEM PAN Biotech P04-03550+10% FBS ATCC 302025). 4 μL compound was added to each well of the cell plate and incubated for 6 h at 37° C. with 5% CO2 BRD9 expression was quantified using the NanoGlo Lytic Endpoint assay (Promega N3050). The lytic buffer was equilibrated to room temperature for 10-15 min before lytic reagent was prepared by adding substrate (1:50) and LgBit protein (1:100) in lytic buffer. 40 μL lytic reagent mix was added to each well of the cel plate and plates were centrifuged briefly at ˜50g. Plates were incubated with shaking (350 RPM) for 12-24 min before reading using the LUM plus module of a BMG Pherastar FSX. Data was analysed using Dotmatics software and % BRD9 remaining was calculated by normalisation to average data from high and low control wells (DMSO treated cels and no cells respectively).

[1] = HEK293, Table 2, Assay Protocol 1
[2] = Table 2, Assay Protocol 1, 6 h of treatment, read-out: Assay 1 DC50

Row | Compound | Dmax at 1 µM [1] [%] | DC50 [2] [nM] | DC50 (Assay protocol 1, read-out: DC50) [nM] | Dmax (HEK293, Assay protocol 1, read-out: Dmax) [%]
1 | COc1cc(-c2cn(C)c(=O)c3cnccc23)cc(OC)c1CN1CCN(Cc2ccc(C3CCCN3C(=O)/C(C#N)=C/c3nccs3)cc2)CC1 (mixture of isomers) [Compound A38, (E/Z)-2-(2-(4-((4-(2,6-dimethoxy-4-(2-methyl-1-oxo-1,2-dihydro-2,7-naphthyridin-4-yl)benzyl)piperazin-1-yl)methyl)phenyl)pyrrolidine-1-carbonyl)-3-(thiazol-2-yl)acrylonitrile] | 40 to 70 | 1.25 to 10 | – | –
2 | COc1cc(-c2cn(C)c(=O)c3cnccc23)cc(OC)c1CN1C2CC1CN(Cc1cccc3c1CCN(C(=O)/C(C#N)=C/C(C)(C)C)C3C)C2 (mixture of isomers) [Compound A40] | 70 to 75 | 10 to 25 | – | –
3 | COc1cc(-c2cn(C)c(=O)c(C)c2C)cc(OC)c1CN1CCN(Cc2cccc3c2CCN(C(=O)/C(C#N)=C/C2CC2)C3C)CC1 (mixture of isomers) [Compound A44] | 40 to 70 | 1.25 to 10 | – | –
4 | COc1cc(-c2cn(C)c(=O)c(C)c2C)cc(OC)c1CN1CCN(Cc2cccc3c2CCN(C(=O)/C(C#N)=C/C2CCC2)C3C)CC1 (mixture of isomers) [Compound A45] | 70 to 75 | 1.25 to 10 | – | –
5 | COc1cc(-c2cn(C)c(=O)c3cnccc23)cc(OC)c1CN(C)Cc1ccc2c(c1)CCN(C(=O)/C(C#N)=C/C(C)(C)C)C2C (mixture of isomers) [Compound A46] | 40 to 70 | 1.25 to 10 | – | –
6 | COc1cc(-c2cn(C)c(=O)c3cnccc23)cc(OC)c1CN(C)Cc1ccc2c(c1)C(C)N(C(=O)/C(C#N)=C/C(C)(C)C)CC2 (mixture of isomers) [Compound A47, (E/Z)-2-[7-[[2,6-dimethoxy-4-(2-methyl-1-oxo-2,7-naphthyridin-4-yl)phenylmethyl-methyl-amino]methyl]-1-methyl-3,4-dihydro-1H-isoquinoline-2-carbonyl]-4,4-dimethyl-pent-2-enenitrile] | 40 to 70 | 10 to 25 | – | –
7 | COc1cc(-c2cc(C)c(=O)n(C)c2)cc(OC)c1CN1CCN(Cc2cccc3c2CCN(C(=O)/C(C#N)=C/C(C)C)C3C)CC1 (mixture of isomers) [Compound A52, (E/Z)-2-(5-((4-(4-(1,5-dimethyl-6-oxo-1,6-dihydropyridin-3-yl)-2,6-dimethoxybenzyl)piperazin-1-yl)methyl)-1-methyl-1,2,3,4-tetrahydroisoquinoline-2-carbonyl)-4-methylpent-2-enenitrile] | > 75 | 1.25 to 10 | – | –
8 | COc1cc(-c2cn(C)c(=O)c(C)c2C)cc(OC)c1CN1CCN(Cc2cccc3c2CCN(C(=O)/C(C#N)=C/c2ccc(C(F)(F)F)cn2)C3C)CC1 (mixture of isomers) [Compound A54, (E/Z)-2-(5-((4-(2,6-dimethoxy-4-(1,4,5-trimethyl-6-oxo-1,6-dihydropyridin-3-yl)benzyl)piperazin-1-yl)methyl)-1-methyl-1,2,3,4-tetrahydroisoquinoline-2-carbonyl)-3-(5-(trifluoromethyl)pyridin-2-yl)acrylonitrile] | 40 to 70 | 1.25 to 10 | – | –
9 | COc1cc(-c2cn(C)c(=O)c(C)c2C)cc(OC)c1CN1CCN(C(=O)CCc2ccc3c(c2)C(C)N(C(=O)/C(C#N)=C/c2nccs2)CC3)CC1 (mixture of isomers) [Compound A55, (E/Z)-2-(7(3-(4-(2,6-dimethoxy-4-(1,4,5-trimethyl-6-oxo-1,6-dihydropyridin-3-yl)benzyl)piperazin-1-yl)-3-oxopropyl)-1-methyl-1,2,3,4-tetrahydroisoquinoline-2-carbonyl)-3-(thiazol-2-yl)acrylonitrile] | 40 to 70 | 10 to 25 | – | –
10 | COc1cc(-c2cn(C)c(=O)c(C)c2C)cc(OC)c1CN1CCN(C(=O)CCc2ccc3c(c2)CCN(C(=O)/C(C#N)=C/c2nccs2)C3C)CC1 (mixture of isomers) [Compound A56, (E/Z)-2-(6-(3-(4-(2,6-dimethoxy-4-(1,4,5-trimethyl-6-oxo-1,6-dihydropyridin-3-yl)benzyl)piperazin-1-yl)-3-oxopropyl)-1-methyl-1,2,3,4-tetrahydroisoquinoline-2-carbonyl)-3-(thiazol-2-yl)acrylonitrile] | 40 to 70 | 10 to 25 | – | –
11 | COc1cc(-c2cn(C)c(=O)c(C)c2C)cc(OC)c1CN1CCN(C(=O)CCc2cccc3c2CCN(C(=O)/C(C#N)=C/c2nccs2)C3C)CC1 (mixture of isomers) [Compound A57, (E/Z)-2-(5-(3-(4-(2,6-dimethoxy-4-(1,4,5-trimethyl-6-oxo-1,6-dihydropyridin-4-yl)benzyl)piperazin-1-yl)-3-oxopropyl)-1-methyl-1,2,3,4-tetrahydroisoquinoline-2-carbonyl)-3-(thiazol-2-yl)acrylonitrile] | > 75 | 1.25 to 10 | – | –
12 | CCCC(c1ccc(CCC(=O)N2CCN(Cc3c(OC)cc(-c4cn(C)c(=O)c(C)c4C)cc3OC)CC2)cc1)N(C)C(=O)/C(C#N)=C/c1nccs1 (mixture of isomers) [Compound A58, (E/Z)-2-cyano-N-(1-(4-(3-(4-(2,6-dimethoxy-4-(1,4,5-trimethyl-6-oxo-1,6-dihydropyridin-3-yl)benzyl)piperazin-1-yl)-3-oxopropyl)phenyl)butyl)-N-methyl-3-(thiazol-2-yl)acrylamide] | 40 to 70 | 1.25 to 10 | – | –
13 | COc1cc(-c2cn(C)c(=O)c3cnccc23)cc(OC)c1CN(C)Cc1ccc2c(c1)C(C)N(C(=O)/C(C#N)=C/c1cccc(Br)n1)CC2 (mixture of isomers) [Compound A59] | 70 to 75 | 1.25 to 10 | – | –
14 | COc1cc(-c2cn(C)c(=O)c(C)c2C)cc(OC)c1CN1CCN(Cc2cccc(C3CCCN3C(=O)/C(C#N)=C/c3cccc(Br)n3)c2)CC1 (mixture of isomers) [Compound A63, (E/Z)-3-(6-bromopyridin-2-yl)-2-(2-(3-((4-(2,6-dimethoxy-4-(1,4,5-trimethyl-6-oxo-1,6-dihydropyridin-3-yl)benzyl)piperazin-1-yl)methyl)phenyl)pyrrolidine-1-carbonyl) acrylonitrile] | > 75 | 1.25 to 10 | – | –
15 | COc1cc(-c2cn(C)c(=O)c(C)c2C)cc(OC)c1CN1CC2CC1CN2Cc1cccc2c1CCN(C(=O)/C(C#N)=C/c1cccc(Br)n1)C2C (mixture of isomers) [Compound A64, (E/Z)-3-(6-bromopyridin-2-yl)-2-(5-((5-(2,6-dimethoxy-4-(1,4,5-trimethyl-6-oxo-1,6-dihydropyridin-3-yl)benzyl)-2,5-diazabicyclo[2.2.1]heptan-2-yl)methyl)-1-methyl-1,2,3,4-tetrahydroisoquinoline-2-carbonyl)acrylonitrile] | > 75 | 1.25 to 10 | – | –
16 | COc1cc(-c2cn(C)c(=O)c(C)c2C)cc(OC)c1CN1CC2CCC(C1)N2Cc1cccc2c1CCN(C(=O)/C(C#N)=C/c1cccc(Br)n1)C2C (mixture of isomers) [Compound B8, (E/Z)-3-(6-bromopyridin-2-yl)-2-(5-((3-(2,6-dimethoxy-4-(1,4,5-trimethyl-6-oxo-1,6-dihydropyridin-3-yl)benzyl)-3,8-diazabicyclo[3.2.1]octan-8-yl)methyl)-1-methyl-1,2,3,4-tetrahydroisoquinoline-2-carbonyl)acrylonitrile] | – | – | 1.25 to 10 | 40 to 70
17 | COc1cc(-c2cn(C)c(=O)c3cnccc23)cc(OC)c1CN1CC2CC1CN2Cc1cccc2c1CCN(C(=O)/C(C#N)=C/C(C)(C)C)C2C (single isomer, unassigned) [Compound A39, (E/Z)-2-(5-((5-(2,6-dimethoxy-4-(2-methyl-1-oxo-1,2-dihydro-2,7-naphthyridin-4-yl)benzyl)-2,5-diazabicyclo[2.2.1]heptan-2-yl)methyl)-1-methyl-1,2,3,4-tetrahydroisoquinoline-2-carbonyl)-4,4-dimethylpent-2-enenitrile] | 40 to 70 | 1.25 to 10 | – | –
18 | COc1cc(-c2cn(C)c(=O)c(C)c2C)cc(OC)c1CN1CCN(Cc2cccc3c2CCN(C(=O)/C(C#N)=C/c2ccn(C)n2)C3C)CC1 (stereo not drawn) [Compound A8, (E)-2-(5-((4-(2,6-dimethoxy-4-(1,4,5-trimethyl-6-oxo-1,6-dihydropyridin-3-yl)benzyl)piperazin-1-yl)methyl)-1-methyl-1,2,3,4-tetrahydroisoquinoline-2-carbonyl)-3-(1-methyl-1H-pyrazol-3-yl)acrylonitrile] | 40 to 70 | 10 to 25 | – | –

— patent publication US20260092061A1, “COMPOUNDS FOR TARGETED PROTEIN DEGRADATION” (Amphista Therapeutics Limited, priority 2022, published 2026)
